Tested on: CLMB-FLAG S-acylation in HEK293 Flp-In TReX cells
Assay: Metabolic pulse-chase labeling assay of dynamic CLMB S-acylation
Type: cell-based
Settings: 30-min chase

CCCCCCCCCC[C@@H]1C(=O)O[C@H]1CCc1ccc(OC)c(OC)c1 [PalmB, palmostatin B]
increase of palmitate incorporation into CLMB (17-ODYA to L-AHA ratio), PalmB vs DMSO: ~ 3 fold

Reference: publication PMC12612047 (Nature Communications, 2025)
